Where two headings read alike, the source gives them in different places.
Assays:
[1] = test system: Key Broadleaf Weed and Crop Species; assay: Post-emergent Test II herbicidal activity (Table 5); assay type: in vivo; conditions: post-emergence, 336 h, 14 days after application; for pest or weed control at 70 g/ha: application rate 70 g ai/ha; for pest or weed control at 140 g/ha: application rate 140 g ai/ha
Procedure, shortened: (§1)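 Percent injury, 0 (none) to 100 (complete kill), was judged visually 14 d after spraying young plants at the first or second true leaf stage with compound in an acetone/DMSO aqueous carrier at 187 L/ha. Plants were kept in a greenhouse at 23–29 °C by day.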

[2] = test system: Key Grass and Sedge Weeds as well as Grass Crops; assay: Post-emergent Test II herbicidal activity (Table 6); assay type: in vivo; conditions: post-emergence, 336 h; for pest or weed control at 70 g/ha: 70 g ai/ha; for pest or weed control at 140 g/ha: 140 g ai/ha
Procedure, shortened: as §1

[3] = ABUTH: velvetleaf (Abutilon theophrasti), read-out: Visual Growth Reduction (%) 14 Days After Application, ABUTH
[4] = AMARE: redroot pigweed (Amaranthus retroflexus), read-out: Visual Growth Reduction (%) 14 Days After Application, AMARE
[5] = BRSNN: oilseed-rape, canola (Brassica napus), read-out: Visual Growth Reduction (%) 14 Days After Application, BRSNN
[6] = CHEAL: lambsquarters (Chenopodium album), read-out: Visual Growth Reduction (%) 14 Days After Application, CHEAL
[7] = EPHHL: wild poinsettia (Euphorbia heterophylla), read-out: Visual Growth Reduction (%) 14 Days After Application, EPHHL
[8] = HELAN: sunflower (Helianthus annuus), read-out: Visual Growth Reduction (%) 14 Days After Application, HELAN
[9] = VIOTR: wild pansy (Viola tricolor), read-out: Visual Growth Reduction (%) 14 Days After Application, VIOTR
[10] = CYPES: yellow nutsedge (Cyperus esculentus), read-out: Visual Growth Reduction (%) 14 Days After Application, CYPES
[11] = DIGSA: crabgrass (Digitaria sanguinalis), read-out: Visual Growth Reduction (%) 14 Days After Application, DIGSA
[12] = ECHCG: barnyardgrass (Echinochloa crus-galli), read-out: Visual Growth Reduction (%) 14 Days After Application, ECHCG
[13] = ORYSA: rice (Oryza sativa), crop, read-out: Visual Growth Reduction (%) 14 Days After Application, ORYSA
[14] = SETFA: giant foxtail (Setaria faberi), read-out: Visual Growth Reduction (%) 14 Days After Application, SETFA
[15] = SORVU: grain sorghum (Sorghum vulgare), read-out: Visual Growth Reduction (%) 14 Days After Application, SORVU
[16] = TRZSS (wheat, Triticum aestivum), crop, read-out: Visual Growth Reduction (%) 14 Days After Application, TRZSS
[17] = ZEAMX: maize, corn (Zea mays), crop, read-out: Visual Growth Reduction (%) 14 Days After Application, ZEAMX

Nc1c(F)c(-c2ccc(I)cc2)nc(C(=O)O)c1Cl [Compound 45, 4-amino-3-chloro-5-fluoro-6-(4-iodophenyl)picolinic acid]
pest or weed control at 70 g/ha [1, 3]: 95 to 100% | pest or weed control at 140 g/ha [1, 3]: 95 to 100% | pest or weed control at 70 g/ha [1, 4]: 95 to 100% | pest or weed control at 140 g/ha [1, 4]: 95 to 100% | pest or weed control at 70 g/ha [1, 5]: 95 to 100% | pest or weed control at 140 g/ha [1, 5]: 95 to 100% | pest or weed control at 70 g/ha [1, 6]: 95 to 100% | pest or weed control at 140 g/ha [1, 6]: 95 to 100% | pest or weed control at 70 g/ha [1, 7]: 95 to 100% | pest or weed control at 140 g/ha [1, 7]: 95 to 100% | pest or weed control at 70 g/ha [1, 8]: 95 to 100% | pest or weed control at 140 g/ha [1, 8]: 95 to 100% | pest or weed control at 70 g/ha [1, 9]: 85 to 94% | pest or weed control at 140 g/ha [1, 9]: 95 to 100% | pest or weed control at 70 g/ha [2, 10]: 85 to 94% | pest or weed control at 140 g/ha [2, 10]: 95 to 100% | pest or weed control at 70 g/ha [2, 11]: 85 to 94% | pest or weed control at 140 g/ha [2, 11]: 85 to 94% | pest or weed control at 70 g/ha [2, 12]: 95 to 100% | pest or weed control at 140 g/ha [2, 12]: 95 to 100% | pest or weed control at 70 g/ha [2, 13]: 45 to 59% | pest or weed control at 140 g/ha [2, 13]: 60 to 74% | pest or weed control at 70 g/ha [2, 14]: 85 to 94% | pest or weed control at 140 g/ha [2, 14]: 85 to 94% | pest or weed control at 70 g/ha [2, 15]: 60 to 74% | pest or weed control at 140 g/ha [2, 15]: 95 to 100% | pest or weed control at 70 g/ha [2, 16]: 60 to 74% | pest or weed control at 140 g/ha [2, 16]: 75 to 84% | pest or weed control at 70 g/ha [2, 17]: 85 to 94% | pest or weed control at 140 g/ha [2, 17]: 95 to 100%

Reference: patent US9113629B2, “4-amino-6-(4-substituted-phenyl)-picolinates and 6-amino-2-(4-substituted-phenyl)-pyrimidine-4-carboxylates and their use as herbicides” (DOW AGROSCIENCES LLC, priority 2013, dated 2015)
